The text below walks through data of patent US7709521B2, “Substituted indole derivatives for pharmaceutical compositions for treating respiratory diseases” (AstraZeneca AB, priority 2003, dated 2010).

Broadly, the melting point is the temperature, or range, at which the solid turns liquid. By IC50 is commonly meant the concentration needed to halve the response being measured. Read a low IC50 as greater potency in that assay.

Molecules are shown by their SMILES.

System in one series: not given
Experiment: not given
Details: not given
Regarding `Cc1c(Oc2ccc(S(C)(=O)=O)cc2)c2cc(F)ccc2n1CC(=O)O` [Example 2, 5-Fluoro-2-methyl-3-[4-(methylsulfonyl)phenoxy]-1H-indole-1-acetic acid], the melting point lay within 204 to 207 °C.
On the same count and under the same terms, the figure for `CNC(=O)c1ccc(Oc2c(C)n(CC(=O)O)c3ccc(F)cc23)cc1` [Example 10, 5-Fluoro-2-methyl-3-[4-[(methylamino)carbonyl]phenoxy]-1H-indole-1-acetic acid] is 217 to 218 °C; for `CCNC(=O)c1ccc(Oc2c(C)n(CC(=O)O)c3ccc(F)cc23)cc1` [Example 11, 3-[4-[(Ethylamino)carbonyl]phenoxy]-5-fluoro-2-methyl-1H-indole-1-acetic acid] it is 220 to 222 °C.
On the same count and under the same terms, the same measure for `Cc1c(Oc2ccc(C(=O)NC(C)C)cc2)c2cc(F)ccc2n1CC(=O)O` [Example 12, 5-Fluoro-2-methyl-3-[4-[[(1-methylethyl)amino]carbonyl]phenoxy]-1H-indole-1-acetic acid]: 218 to 219 °C; for `Cc1c(Oc2ccc(C(=O)O)cc2)c2cc(Cl)ccc2n1CC(=O)O` [Example 13, 3-(4-Carboxyphenoxy)-5-chloro-2-methyl-1H-indole-1-acetic acid]: 215 to 216 °C; for `COC(=O)c1ccc(Oc2c(C)n(CC(=O)O)c3ccc(F)cc23)cc1` [Example 14, 5-Fluoro-3-[4-(methoxycarbonyl)phenoxy]-2-methyl-1H-indole-1-acetic acid]: 195 to 196 °C.
Still for that read-out and setting: the same measure for `COC(=O)c1ccc(Oc2c(C)n(CC(=O)O)c3ccc(Cl)cc23)cc1` [Example 15, 5-Chloro-3-[4-(methoxycarbonyl)phenoxy]-2-methyl-1H-indole-1-acetic acid]: 196 to 197 °C; for `CNC(=O)c1ccc(Oc2c(C)n(CC(=O)O)c3ccc(Cl)cc23)cc1` [Example 16, 5-Chloro-2-methyl-3-[4-[(methylamino)carbonyl]phenoxy]-1H-indole-1-acetic acid]: 225 °C (dec.); for `CCNC(=O)c1ccc(Oc2c(C)n(CC(=O)O)c3ccc(Cl)cc23)cc1` [Example 17, 5-Chloro-3-[4-[(ethylamino)carbonyl]phenoxy]-2-methyl-1H-indole-1-acetic acid]: 220 °C (dec.).
As to `Cc1c(Oc2ccc(C(=O)NC(C)C)cc2)c2cc(Cl)ccc2n1CC(=O)[O-].[Na+]` [Example 18, Sodium 5-Chloro-2-methyl-3-[4-[[(1-methylethyl)amino]carbonyl]phenoxy]-1H-indole-1-acetate], the melting point was < 275 °C.

The next series addresses T1, rhCRTh2 (Homo sapiens, UniProt Q9Y5Y4).
T1 construct: expressed in transfected cells; host or cells: HEK cells (membrane preparation)
T1 sequence (Q9Y5Y4 1-395): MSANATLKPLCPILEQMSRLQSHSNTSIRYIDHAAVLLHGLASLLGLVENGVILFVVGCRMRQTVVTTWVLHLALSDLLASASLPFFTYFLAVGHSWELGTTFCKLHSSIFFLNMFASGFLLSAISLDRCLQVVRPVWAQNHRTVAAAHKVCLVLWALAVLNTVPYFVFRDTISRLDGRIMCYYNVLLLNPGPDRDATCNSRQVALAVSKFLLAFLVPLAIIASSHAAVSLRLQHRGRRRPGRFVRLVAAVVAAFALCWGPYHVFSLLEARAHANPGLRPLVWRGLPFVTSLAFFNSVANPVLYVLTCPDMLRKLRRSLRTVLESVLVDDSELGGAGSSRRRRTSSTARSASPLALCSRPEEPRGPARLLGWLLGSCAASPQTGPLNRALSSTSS
In words: Ligand binding assay ([3H]PGD2 displacement, SPA, HEK cell membranes). Particulars: [3H]PGD2 binding to membranes of HEK cells expressing rhCRTh2/Gα16, SPA beads, room temperature, 2 hours.
Method: [^3H]PGD2 was purchased from Perkin Elmer Life Sciences with a specific activity of 100-210 Ci/mmol.
HEK cells expressing rhCRTh2/Gα16 were routinely maintained in DMEM containing 10% Foetal Bovine Serum (HyClone), 1 mg/ml geneticin, 2 mM L-glutamine and 1% non-essential amino acids. For the preparation of membranes, the adherent transfected HEK cells were grown to confluence in two layer tissue culture factories (Fisher, catalogue number TKT-170-070E). Maximal levels of receptor expression were induced by addition of 500 mM sodium butyrate for the last 18 hours of culture. The adherent cells were washed once with phosphate buffered saline (PBS, 50 ml per cell factory) and detached by the addition of 50 ml per cell factory of ice-cold membrane homogenisation buffer [20 mM HEPES (pH 7.4), 0.1 mM dithiothreitol, 1 mM EDTA, 0.1 mM phenyl methyl sulphonyl fluoride and 100 μg/ml bacitracin]. Cells were pelleted by centrifugation at 220×g for 10 minutes at 4° C., re-suspended in half the original volume of fresh membrane homogenisation buffer and disrupted using a Polytron homogeniser for 2×20 second bursts keeping the tube in ice at all times. […] The final pellet was re-suspended in 4 ml of membrane homogenisation buffer per cell factory used and the protein content determined. […]
All assays were performed in Corning clear bottomed, white 96-well NBS plates (Fisher). […] (The optimum coating concentrations were determined for each batch of membranes) The beads were pelleted by centrifugation (800×g for 7 minutes at 4° C.), washed once with assay buffer (50 mM HEPES pH 7.4 containing 5 mM magnesium chloride) and finally re-suspended in assay buffer at a bead concentration of 10 mg/ml.
Compounds and DK-PGD2 were dissolved in DMSO and diluted in the same solvent to 100× the required final concentration. […] The assay plate was incubated at room temperature for 2 hours and counted on a Wallac Microbeta liquid scintillation counter (1 minute per well).
With `Cc1c(Oc2ccc(Cl)cc2)c2cc(S(C)(=O)=O)ccc2n1CC(=O)O` [Example 5, 3-(4-chlorophenoxy)-2-methyl-5-(methylsulfonyl)-1H-indole-1-acetic acid], the IC50 was 89.1 nM.
The same measure, in the same setting: the figure for `Cc1c(Oc2ccc(Cl)cc2)c2cc(C(F)(F)F)ccc2n1CC(=O)O` [Example 6, 3-(4-chlorophenoxy)-2-methyl-5-(trifluoromethyl)-1H-indole-1-acetic acid] is 11.2 nM; for `Cc1c(Oc2ccc(C(=O)O)cc2)c2cc(F)ccc2n1CC(=O)O` [Example 9, 3-(4-Carboxyphenoxy)-5-fluoro-2-methyl-1H-indole-1-acetic acid] it is 178 nM.
